# Assays:
# [1] = test system: P19 EC cells; assay: Induction of beating muscle in replated P19EC aggregates (hanging drops); assay type: cell-based, mouse
# Protocol: END-2 cells and hES cells were cultured as described in Example 1. The hES2 cell line from ES Cell International Pte Ltd was used in all experiments. […] Co-cultures were then grown for up to 6 weeks and scored for the presence of areas of beating muscle from 5 days onwards. HepG2 cells, a carcinoma cell line resembling liver parenchymal cells (Knowles et al, (1980) Science 209:497-9), were cultured in DMEM plus 10% FCS and passaged twice weekly. […] Hanging-drop cultures of P19 EC cells were initiated and maintained in DMEM/Ham's F12 (1:1), as described previously (Mummery et al, 1991), using regular FCS while bulk production of P19 embryoid bodies in the presence or absence of END-2 conditioned medium for isolation of RNA for Northem blotting, was in the presence of charcoal-stripped FCS, as described (Mummery et al, 1991) to reduce background levels of cardiomyocyte differentiation caused by lipophilic substances possibly with retinoid-like activity in FCS. P19 clone 6 were cultured in αMEM and treated αMEM conditioned by END-2 cells. For electrophysiology, beating aggregates were dissociated using collagenase and replated on gelatine-coated coverslips. […]
# [2] = test system: Brachyury T; assay: Northern blot of Brachyury T in P19EC aggregates; assay type: cell-based, mouse; settings: FIG. 10B
# Protocol: (§1) END-2 cells and hES cells were cultured as described in Example 1. The hES2 cell line from ES Cell International Pte Ltd was used in all experiments. […] Co-cultures were then grown for up to 6 weeks and scored for the presence of areas of beating muscle from 5 days onwards. HepG2 cells, a carcinoma cell line resembling liver parenchymal cells (Knowles et al, (1980) Science 209:497-9), were cultured in DMEM plus 10% FCS and passaged twice weekly. […] Hanging-drop cultures of P19 EC cells were initiated and maintained in DMEM/Ham's F12 (1:1), as described previously (Mummery et al, 1991), using regular FCS while bulk production of P19 embryoid bodies in the presence or absence of END-2 conditioned medium for isolation of RNA for Northem blotting, was in the presence of charcoal-stripped FCS, as described (Mummery et al, 1991) to reduce background levels of cardiomyocyte differentiation caused by lipophilic substances possibly with retinoid-like activity in FCS. P19 clone 6 were cultured in αMEM and treated αMEM conditioned by END-2 cells. For electrophysiology, beating aggregates were dissociated using collagenase and replated on gelatine-coated coverslips.
# RNA was isolated from P19 aggregates and poly A+ RNA selected, as described previously (Mummery et al, 1990, Dev. Biol. 142: 406413).
# Background differentiation levels are reduced virtually to zero if the FCS is passed over an activated charcoal column (DCC-FCS) to remove residual retinoids; in addition, differentiation is blocked by activin (van den Eijnden-van Raaij et al, 1991, Mech. Dev. 33:157-166). […] The P19EC assay system was preferred because these cells are feeder independent for undifferentiated growth. […] Moreover, the induction of Brachyury T is blocked by the additional presence of activin (FIG. 10B), consistent with its ability to block the formation of beating muscle in aggregates. The transient expression of Brachyury T is similar to that observed during early mesoderm differentiation during gastrulation of the mouse embryo.
# [3] = test system: P19 EC cells; settings: van den Eijnden-van Raaij et al, 1991; cited from earlier work
# [4] = test system: hES-derived cardiomyocytes; assay: Beating of hES-derived cardiomyocytes in response to pharmacological agonists; assay type: cell-based, human; settings: hES2/END-2 co-culture derived cardiomyocytes
# Protocol: as §1
# The majority of the experiments described here were carried out using the hES2 cell line (Reubinoff et al, 2000). […] Oct4 expression thus correlated with phenotypic characteristics of undifferentiated cells. hES cells were subcultured by transferring small clumps of undifferentiated cells either to new, mit.C-treated MEFs or confluent cultures of mit.C-treated END-2 cells. After approximately 5d under these conditions, epithelial cells became evident which over the next few days become fluid-filled cysts (FIG. 1A). […] In addition, by 10 d areas of rhythmically contracting cells in more solid aggregates become evident (FIG. 1A, 3e) with a variety of overall morphologies (FIG. 1B, 3e). […]
molecule,measurement,setting,value
"C[S+](C)[O-] [DMSO, dimethyl sulphoxide]",cardiomyocyte differentiation of P19EC aggregates,"[1]; control, FIG. 10",induces cardiomyocyte differentiation
same,aggregates with beating muscle,"[1]; day 10, FIG. 10A",All aggregates beat
same,Brachyury T expression (early mesoderm marker),"[2]; aggregation phase, first 3 days",induced
activin,effect on DMSO induced Brachyury T expression,[2]; activin added with DMSO,blocked
same,effect on END-2 CM induced Brachyury T expression,[2]; activin added with END-2 CM,blocked
same,effect on differentiation of P19EC aggregates to beating muscle,[3],blocked
CC(C)NCC(O)c1ccc(O)c(O)c1 (stereo not drawn) [isoprenaline],beating of hES-derived cardiomyocytes in response to agonist,[4],upregulated
CNC[C@H](O)c1cccc(O)c1 [phenylephrine],beating of hES-derived cardiomyocytes in response to agonist,[4],upregulated
C[N+](C)(C)CCOC(N)=O [carbachol],beating of hES-derived cardiomyocytes in response to agonist,[4],upregulated

# From patent US8728457B2, “Methods of inducing differentiation of stem cells” (priority 2001, dated 2014)
